Laboratory results from patent publication US20220089598A1, “INHIBITORS OF HUMAN IMMUNODEFICIENCY VIRUS REPLICATION” (VIIV HEALTHCARE UK (No. 5) LIMITED, priority 2018, published 2022).
Like-named read-outs stand apart in the source and are kept apart here.

Tests used:
Type in all cases: cell-based
[1] = system: recombinant NL4-3 virus (Renilla luciferase) in MT-2 cells; experiment: HIV cell culture assay (antiviral activity, luciferase readout)
Outline: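 Nef-deleted NL4-3 carrying Renilla luciferase, made by transfecting 293T cells, infects MT-2 cells for 4-5 days with serial compound dilutions present. Luciferase is read with a live-cell substrate. EC50 comes from the exponential median-effect equation Fa=1/[1+(ED50/drug conc.)m].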

[2] = system: uninfected MT2 cells; experiment: Compound cytotoxicity, XTT-based colorimetric assay; conditions: day 4, XTT assay
Outline: (§1)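 Run under the antiviral-assay protocol but without virus. Viability was read on day 4 and CC50 values were derived from the readout.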

[3] = as above; conditions: human; uninfected MT2 cells, day 4, XTT assay
Outline: as §1

SMILES: CS(=O)(=O)Nc1nn(CC(F)F)c2c(-n3c(C(Cc4cc(F)cc(F)c4)NC(=O)Cn4nc(C(F)(F)F)c5c4C(F)(F)C4CC54)nc4nc(-c5ccccc5F)ccc4c3=O)ccc(Cl)c12 [Example 32, N—((S)-1-((3P)-3-(4-chloro-1-(2,2-difluoroethyl)-3-(methylsulfonamido)-1H-indazol-7-yl)-7-(2-fluorophenyl)-4-oxo-3,4-dihydropyrido[2,3-d]pyrimidin-2-yl)-2-(3,5-difluorophenyl)ethyl)-2-((3bS,4aR)-5,5-difluoro-3-(trifluoromethyl)-3b,4,4a,5-tetrahydro-1H-cyclopropa[3,4]cyclopenta[1,2-c]pyrazol-1-yl)acetamide]
- EC50 ([1]; MT-2 cells infected for 4-5 days with recombinant NL4-3 virus, luciferase activity, read-out: EC50): 0.077 nM
- CC50 [2]: > 500 nM

SMILES: CS(=O)(=O)Nc1nn(CC(F)(F)F)c2c(-n3c([C@H](Cc4cc(F)cc(F)c4)NC(=O)Cn4nc(C(F)(F)F)c5c4C(F)(F)[C@@H]4C[C@H]54)nc4nc(-c5ccccc5F)ccc4c3=O)ccc(Cl)c12 (atropisomer, axis not shown; (P)) [Example 11, N—((S)-1-((3P)-3-(4-chloro-3-(methylsulfonamido)-1-(2,2,2-trifluoroethyl)-1H-indazol-7-yl)-7-(2-fluorophenyl)-4-oxo-3,4-dihydropyrido[2,3-d]pyrimidin-2-yl)-2-(3,5-difluorophenyl)ethyl)-2-((3bS,4aR)-5,5-difluoro-3-(trifluoromethyl)-3b,4,4a,5-tetrahydro-1H-cyclopropa[3,4]cyclopenta[1,2-c]pyrazol-1-yl)acetamide]
- EC50 ([1]; Renilla, NL43): 0.15 nM
- CC50 at 4 day [3]: > 100 nM

SMILES: Cn1nc(NS(C)(=O)=O)c2c(Cl)ccc(-n3c([C@H](Cc4cc(F)cc(F)c4)NC(=O)Cn4nc(C(F)F)c5c4C(F)(F)[C@@H]4C[C@H]54)nc4nc(-c5ccc(F)c(Cl)c5)ccc4c3=O)c21 (atropisomer, axis not shown; (P)) [Example 29, N—((S)-1-((3P)-3-(4-chloro-1-methyl-3-(methylsulfonamido)-1H-indazol-7-yl)-7-(3-chloro-4-fluorophenyl)-4-oxo-3,4-dihydropyrido[2,3-d]pyrimidin-2-yl)-2-(3,5-difluorophenyl)ethyl)-2-((3bS,4aR)-3-(difluoromethyl)-5,5-difluoro-3b,4,4a,5-tetrahydro-1H-cyclopropa[3,4]cyclopenta[1,2-c]pyrazol-1-yl)acetamide]
- EC50 ([1]; Renilla, NL43): 0.12 nM
- CC50 at 4 day [3]: > 100 nM

SMILES: Cn1nc(NS(C)(=O)=O)c2c(Cl)ccc(-n3c([C@H](Cc4cc(F)cc(F)c4)NC(=O)Cn4nc(C(F)F)c5c4C(F)(F)[C@@H]4C[C@H]54)nc4nc(-c5ccc(F)cc5S(C)(=O)=O)ccc4c3=O)c21 (atropisomer, axis not shown; (P)) [Example 19, N—((S)-1-((3P)-3-(4-chloro-1-methyl-3-(methylsulfonamido)-1H-indazol-7-yl)-7-(4-fluoro-2-(methylsulfonyl)phenyl)-4-oxo-3,4-dihydropyrido[2,3-d]pyrimidin-2-yl)-2-(3,5-difluorophenyl)ethyl)-2-((3bS,4aR)-3-(difluoromethyl)-5,5-difluoro-3b,4,4a,5-tetrahydro-1H-cyclopropa[3,4]cyclopenta[1,2-c]pyrazol-1-yl)acetamide]
- EC50 ([1]; Renilla, NL43): 0.12 nM
- CC50 at 4 day [3]: > 500 nM
